This is an account of results in article PMC9961069 (Metabolites, 2023).

Each structure is given as a SMILES string.

For test [1], the system named is STAT3 transcriptional activity in U3A STAT3 luciferase reporter cell line. The test can be described thus: STAT3 luciferase reporter assay. It is filed as cell-based. Particulars: 0.02–20 μM, OSM 10 ng/mL. Here is the method:
The STAT3-dependent luciferase reporter assay was performed as previously reported. One day prior to the assay, the U3A STAT3 luciferase reporter cell line was seeded in a 96-well plate at 8000 cells per well. Cells were then incubated with compounds at the indicated concentration, and each well was treated with either media control or stimulated with 10 ng/mL oncostatin M (OSM) and incubated for six hours at 37 °C. Luciferase activity was quantified using the Bright-Glo Luciferase Assay system (Promega) and a Luminoskan Ascent Luminometer (Labsystems). Collected luminescence readings were normalized to DMSO-treated controls. Stimulation with (+OSM) gave luminescence values around 2.5 times that of the unstimulated control (−OSM). Quadruplicates were averaged and plotted with error bars representing standard deviation. Each condition was performed in quadruplicate on two separate occasions (n = 2) with representative data shown. Statistical significance was determined using Ordinary one-way ANOVA with a Dunnett multiple comparison test.
For orientation: In a reporter assay the amount or activity of a reporter protein is the signal.

For test [2], the system named is MDA-MB-231 cells. The test can be described thus: LC/MS-based metabolite profiling. It is filed as cell-based, Human. As to conditions: 24 h. Here is the method: For characterization by mass spectrometry, MDA-MB-231 cells were seeded at a density of 3 × 10^5 cells per well in 6-well plates. […] DMSO only and DMSO + folinic acid controls were also performed. Per condition, biological quadruplicates of approximately one million cells were harvested, washed briefly with 1 mL of 0.9% NaCl (prepared in LC/MS-grade water Fisher Scientific W6500), and extracted in 500 μL prechilled extraction buffer (80% LC/MS-grade methanol, 20% 125 mM ammonium acetate, 12.5 mM sodium ascorbate prepared in LC/MS-grade water and supplemented with aminopterin (catalog no.: 16.330; Schircks Laboratories) and isotopically labeled internal standards (17 amino acids and reduced glutathione [Cambridge Isotope Laboratories; MSK- A2-1.2 and CNLM-6245-10])) using a cell scraper. After centrifugation for 10 min, 4 °C, at maximum speed on a benchtop centrifuge (Eppendorf), the cleared supernatant was transferred to a new tube and dried using a nitrogen dryer (Reacti-Vap™ Evaporator, Thermo Fisher Scientific, TS-18826) while on ice. Once the drying process was completed, samples were reconstituted in 50 µL QReSS water (Cambridge Isotope Laboratories, MSK-QRESS-KIT) by brief sonication in a 4 °C water bath. Extracted metabolites were spun for 3 min, 4 °C, at maximum speed on a bench-top centrifuge, and cleared supernatant was transferred to LC/MS microvials (National Scientific, C5000-45B). Three microliters of each sample were pooled and serially diluted 3- and 10-fold to be used as quality controls throughout the run of each batch. Unlabeled QReSS metabolites (Cambridge Isotope Laboratories, MSK-QReSS-US-KIT) and unlabeled amino acid mix standard (Cambridge Isotope Laboratories, MSK-A2-US-1.2) were also included in the run to ensure high-quality metabolomics results.
One microliter (equivalent to 2 × 10^4 cells) of the reconstituted sample was injected into a ZIC-pHILIC 150 × 2.1 mm (5 µm particle size) column (EMD Millipore) operated on a Vanquish™ Flex UHPLC Systems (Thermo Fisher Scientific, San Jose, CA, USA). Chromatographic separation was achieved using the following conditions: buffer A was acetonitrile; buffer B was 20 mM ammonium carbonate, 0.1% ammonium hydroxide. Gradient conditions were: linear gradient from 20% to 80% B; 20–20.5 min: from 80% to 20% B; 20.5–28 min: hold at 20% B. The column oven and autosampler tray were held at 25 °C and 4 °C, respectively.
Mass spectrometry data acquisition was performed using a QExactive benchtop orbitrap mass spectrometer equipped with an Ion Max source and a HESI II probe (Thermo Fisher Scientific, San Jose, CA, USA) and was performed in positive and negative ionization mode in a range of m/z = 70–1000, with the resolution set at 70,000, the AGC target at 1 × 10^6, and the maximum injection time (Max IT) at 20 msec. For nucleotide tSIM scans, the resolution was set at 70,000, the AGC target was 1 × 10^5, and the max IT was 100 msec.
Manual curation and integration of chromatographic peaks were performed with TraceFinder 4.1 (Thermo Fisher Scientific, Waltham, MA, USA) using a 5 ppm mass tolerance and referencing an in-house library of chemical standards. Data from TraceFinder were further consolidated and normalized with an in-house R script: (https://github.com/FrozenGas/KanarekLabTraceFinderRScripts/blob/main/MS_data_script_v2.4_20221018.R (accessed on 22 November 2022)). Briefly, this script performs normalization and quality control steps: (1) extracts and combines the peak areas from TraceFinder output .csvs; (2) calculates and normalizes to an averaged factor from all mean-centered chromatographic peak areas of isotopically labeled amino acids internal standards within each sample; (3) filters out low-quality metabolites based on user inputted cut-offs calculated from pool reinjections and pool dilutions; (4) calculates and normalizes for biological material amounts based on the total integrated peak area values of high-confidence metabolites. […]

In test [3] the test system is T1, DHFR in MDA-MB-468 lysates.
T1 construct: reactions containing 55 μg MDA-MB-468 lysate; endogenous in cells; host or cells: MDA-MB-468
The test can be described thus: Lysate cellular thermal shift assay (CETSA) for DHFR. As to conditions: 10 μM, MDA-MB-468 lysate, 45 °C for 3 min, DMSO at 37 °C = 100%. Format: binding, Human. The procedure:
Trypsinized MDA-MB-468 cells were harvested by centrifugation at 200× g for 5 min and washed with PBS supplemented with EDTA-free PIC (Roche) and flash frozen for storage at −80 °C. Cells were lysed by resuspension in 60 μL PBS/PIC per 1 × 10^6 cells. Cells were lysed by three freeze-thaw cycles, where cells were frozen in an ethanol/dry ice bath for 3 min, immediately followed by incubation in a 37 °C water bath for 3 min. The insoluble fraction was removed by centrifugation at 20,000× g for 20 min at 4 °C. The supernatant containing the soluble lysate was removed and saved for subsequent steps.
After incubation, each reaction was transferred to a 1.5 mL tube and centrifuged at 20,000× g for 20 min at 4 °C to remove the insoluble proteins. After centrifugation, 18 μL of supernatant was carefully removed from each reaction, without disturbing any pelleted aggregates, and added to 4.5 μL of 5× SDS-PAGE loading buffer. 11 μL of each reaction was loaded onto a gel in duplicate, and proteins were detected by Western blot (as described below). Resulting band densities were fit to the Boltzmann equation to determine the melting temperature (Tm):(3) y=Bottom+Top−Bottom/1+e^Tm−x/Slope
To rescue the thermal degradation of DHFR by inhibitors, samples containing 10 μM inhibitor, 55 μg lysate, and 1% DMSO in a total volume of 28 μL in DHFR buffer were prepared in PCR tubes and incubated at room temperature for 20 min. Two DMSO-only controls were also prepared. Reactions containing inhibitors were then incubated at 45 °C for 3 min. One DMSO-only control was also heated at 45 °C for 3 min, and the other control was heated at 37 °C for 3 min. The soluble protein fraction was separated from the insoluble proteins by centrifugation, and proteins were separated by SDS-PAGE, as described above, and analyzed via Western blot, as described below. Each experiment was repeated 3 times.
Proteins were electrophoretically separated on a 10% gel, and proteins were transferred to a methanol-activated PVDF membrane using the Trans-Blot Turbo transfer system (Bio-Rad) for 7 min at 1.3 A and 25 V in Trans-Blot Turbo transfer buffer (Bio-Rad). Membranes were blocked with 5% skim milk w/v in TBS-T (20 mM Tris, 150 mM NaCl, 0.05% Tween-20) for 1 h at room temperature. […] The horseradish peroxidase (HRP)-linked anti-mouse IgG secondary antibody (NA931, Cytiva; 1:3000) was added for 1 h at room temperature in 5% skim milk w/v in TBS-T. Signal was detected by adding Immobilon Forte Western HRP Substrate (Millipore), and chemiluminescence was captured on a Sapphire Biomolecular Imager (Azure Biosystems). Band densities were determined using ImageJ (Fiji). The band intensity of DHFR was normalized to the thermostable loading control SOD1 [22].

Take `CN(Cc1cnc2nc(N)nc(N)c2n1)c1ccc(C(=O)N[C@@H](CCC(=O)O)C(=O)O)cc1` [MTX, methotrexate]: the “Inhibition of STAT3-dependent luciferase activity” value in test [1] is “potent inhibition of luciferase activity”. In addition, in test [2] (10 μM + 300 μg/mL FA), the “Orotate levels with FA supplementation” value is reported as “returned orotate to vehicle control levels”. In addition, in test [2] (10 μM, inhibitor alone), the “AICAR levels” value was “failed to increase AICAR levels in a statistically significant manner” and the “Orotate levels” value was “decreased or statistically insignificant changes in orotate levels”. The “UDP level” value in test [2] (10 μM, inhibitor alone versus DMSO) was “not upon treatment with MTX and 127159 alone”. Further, in test [3], the “Normalized Band Density (%) of soluble DHFR” value is reported as “greater than 100%”. Moreover, the “Normalized Band Density (%) of soluble DHFR” value in test [3] (listed as Methotrexate) stood at 123.37 ± 73.5%.
